PMC6273621, “Synthesis and the Biological Activity of Phosphonylated 1,2,3-Triazolenaphthalimide Conjugates” (Molecules, 2016)
Read-outs that look alike come from different tables or passages of the source.

Experiments:
[1] = Cytotoxicity, cell growth (CC50) in HEL cells; format: cell-based; settings: human, concentration reducing cell growth by 50%
TK− VZV strain = assay: microbe, parasite or virus in culture; format: cell-based, varicella-zoster virus (VZV) strain 07−1; settings: concentration reducing virus plaque formation by 50%
HEL cells = assay: Cytotoxicity, cell morphology (MCC) in HEL cells; format: cell-based, human; settings: minimum cytotoxic concentration causing microscopically detectable alteration of cell morphology
Text: The cytotoxicity of the tested compounds toward the uninfected host cells was defined as the minimum cytotoxic concentration (MCC) that causes a microscopically detectable alteration of normal cell morphology.

TK+ VZV strain = assay: microbe, parasite or virus in culture; format: cell-based, varicella-zoster virus (VZV) strain Oka; settings: concentration reducing virus plaque formation by 50%
[2] = system: human dermal microvascular endothelial HMEC-1 cells; assay: Cytostatic activity, HMEC-1 cell proliferation; format: cell-based; settings: HMEC-1, cell proliferation, read-out: IC50 HMEC-1
[3] = system: human cervix carcinoma cells (HeLa); assay: Cytostatic activity, HeLa cell proliferation; format: cell-based; settings: cell proliferation, 72 h, read-out: IC50 HeLa
Description: (§1) All assays were performed in 96-well microtiter plates. To each well were added (5–7.5) × 10^4 tumor cells and a given amount of the test compound. The cells were allowed to proliferate for 48 h (murine leukemia L1210 cells) or 72 h (human lymphocytic CEM and human cervix carcinoma HeLa cells) at 37 °C in a humidified CO2-controlled atmosphere. At the end of the incubation period, the cells were counted in a Coulter counter.

[4] = system: L1210, CEM, HeLa and HMEC-1 cells; assay: Cytostatic activity, overall statement on the tested cell lines; format: cell-based; settings: naphthalimides devoid of the 1,2,3-triazole unit
Description: as §1

[5] = system: human T-lymphocyte (CEM) cells; assay: Cytostatic activity, CEM cell proliferation; format: cell-based; settings: CCRF-CEM, cell proliferation, 72 h, read-out: IC50 CEM
Description: as §1

[6] = system: murine leukemia (L1210) cells; assay: Cytostatic activity, L1210 cell proliferation; format: cell-based; settings: Mus musculus, L1210; cell proliferation, 48 h; read-out: IC50 L1210
Description: as §1

[7] = Human alphaherpesvirus 3, HEL, read-out: Antiviral Activity EC50, TK− VZV Strain, HEL cell cultures
[8] = Human alphaherpesvirus 3, HEL, read-out: Antiviral Activity EC50, TK+ VZV Strain, HEL cell cultures

| SMILES | CC50 ([1]; HEL cells (uninfected)) [µM] | EC50 (TK− VZV strain; [7]) [µM] | EC50 (TK− VZV strain; read-out: Antiviral Activity EC50, TK− VZV Strain, HEL cell cultures) [µM] | Cytotoxicity, Cell Morphology (MCC) (HEL cells) [μM] | CC50 [1] [µM] | EC50 (TK+ VZV strain; [8]) [µM] | EC50 (TK+ VZV strain; read-out: Antiviral Activity EC50, TK+ VZV Strain, HEL cell cultures) [µM] | IC50 [2] [µM] | IC50 [3] [µM] | melting point [°C] | Cytostatic activity (in words) [4] | IC50 [5] [µM] | IC50 [6] [µM] |
| --- | --- | --- | --- | --- | --- | --- | --- | --- | --- | --- | --- | --- | --- |
| Nc1nc2c(ncn2COCCO)c(=O)[nH]1 [Acyclovir] | > 440 |  |  |  |  |  |  |  |  |  |  |  |  |
| O=c1[nH]c(=O)n([C@H]2C[C@H](O)[C@@H](CO)O2)cc1/C=C/Br [Brivudin, reference compound] |  | 24.9 | 13.7 | >300 | > 300 | 0.013 | 0.0078 |  |  |  |  |  |  |
| C#CCN1C(=O)c2cccc3cc([N+](=O)[O-])cc(c23)C1=O [Compound 11, 5-Nitro-2-(prop-2-yn-1-yl)-1H-benzo[de]isoquinoline-1,3(2H)-dione] |  | > 100 |  | 100 |  | 48.9 |  | > 250 | 109 ± 5 | 213 to 214 | inactive | 229 ± 18 | 177 ± 16 |
